Measurements: US8217060B2, “Benzimidazole derivatives useful as TRP M8 receptor modulators” (Janssen Pharmaceutica, NV, priority 2009, dated 2012)
pIC50: −log10 of the molar value. Counter-ions that a name gives are not always drawn.

What was measured:
canine TRPM8 = target: T1, canine TRPM8 (Canis lupus familiaris, UniProt Q1A7N1); experiment: In Vitro Canine TRPM8 Functional Assay (icilin-induced intracellular Ca2+ fluorescence, FLIPR/FDSS); type: cell-based; conditions: HEK293 cells stably expressing canine TRPM8; for inhibition at 0.2 µM: 0.2 μM test compound, icilin challenge; for pIC50: icilin challenge (~80% maximal response), eight-point dose-response
T1 construct: expressed in transfected cells
Procedure: The functional activity of representative compounds of the formula (I) of the present invention were measured by measuring changes in intracellular calcium concentration using a Ca^2+-sensitive fluorescent dye. The changes in fluorescent signal were monitored by a fluorescence plate reader, either a FLIPR™ (Molecular Devices) or FDSS (Hamamatsu).
HEK293 cells stably expressing canine TRPM8 were routinely grown as monolayers in Dulbecco's minimum essential medium supplemented with 10% FBS, 2 mM L-glutamine, 100 units/mL penicillin, 100 ug/mL streptomycin and 400 μg/mL G418. Cells were maintained in 5% CO2 at 37° C. At 24 hrs prior to assay, cells were seeded in black wall, clear-base poly-D-lysine coated 384-well plates (BD Biosciences, NJ, USA) at a density of 5,000 cells per well in culture medium and grown overnight in 5% CO2 at 37° C. On assay day, growth media was removed and cells were loaded with Calcium 3 Dye (Molecular Devices) for 35 min at 37° C., under 5% CO2 and then for 25 min at room temperature and atmosphere. Subsequently, cells were tested for agonist-induced increases in intracellular Ca^2+ levels using FLIPR™ or FDSS. Cells were challenged with compounds of the formula (I) (at varying concentrations) and intracellular Ca^2+ was measured for 5 min prior to the addition of icilin to all wells to achieve a final concentration that produces approximately an 80% maximal response.
Basal FI was subtracted prior to normalizing data to percent of maximal response. Curves were generated using the average of quadruplicate wells for each data point, were analyzed using nonlinear regression of either sigmoidal dose response or sigmoidal dose response (variable slope). Finally, the EC50 and IC50 values were calculated with the best-fit dose curve determined by GraphPad Prism

Male Sprague Dawley rats = experiment: Inhibition of Icilin-Induced “Wet-Dog” Shakes in Rats; type: in vivo; conditions: 60 min before icilin 3.0 mg/kg i.p., rat
Procedure: Male Sprague Dawley rats ([…], Charles River Labs, n=6-9/treatment) were used to evaluate the ability of test compounds to block icilin-induced “wet-dog” shakes (WDS). The test compound was administered in 10% hydroxypropyl-β-cyclodextrin (HP β CD), p.o., 60 minutes before icilin. Icilin was then administered in 10% solutol/H2O, at 3.0 mg/kg, i.p. and spontaneous “wet-dog” shakes were counted over a 10 minute period, 10 minutes following the icilin injection.

T1 sequence (Q1A7N1 1-1104): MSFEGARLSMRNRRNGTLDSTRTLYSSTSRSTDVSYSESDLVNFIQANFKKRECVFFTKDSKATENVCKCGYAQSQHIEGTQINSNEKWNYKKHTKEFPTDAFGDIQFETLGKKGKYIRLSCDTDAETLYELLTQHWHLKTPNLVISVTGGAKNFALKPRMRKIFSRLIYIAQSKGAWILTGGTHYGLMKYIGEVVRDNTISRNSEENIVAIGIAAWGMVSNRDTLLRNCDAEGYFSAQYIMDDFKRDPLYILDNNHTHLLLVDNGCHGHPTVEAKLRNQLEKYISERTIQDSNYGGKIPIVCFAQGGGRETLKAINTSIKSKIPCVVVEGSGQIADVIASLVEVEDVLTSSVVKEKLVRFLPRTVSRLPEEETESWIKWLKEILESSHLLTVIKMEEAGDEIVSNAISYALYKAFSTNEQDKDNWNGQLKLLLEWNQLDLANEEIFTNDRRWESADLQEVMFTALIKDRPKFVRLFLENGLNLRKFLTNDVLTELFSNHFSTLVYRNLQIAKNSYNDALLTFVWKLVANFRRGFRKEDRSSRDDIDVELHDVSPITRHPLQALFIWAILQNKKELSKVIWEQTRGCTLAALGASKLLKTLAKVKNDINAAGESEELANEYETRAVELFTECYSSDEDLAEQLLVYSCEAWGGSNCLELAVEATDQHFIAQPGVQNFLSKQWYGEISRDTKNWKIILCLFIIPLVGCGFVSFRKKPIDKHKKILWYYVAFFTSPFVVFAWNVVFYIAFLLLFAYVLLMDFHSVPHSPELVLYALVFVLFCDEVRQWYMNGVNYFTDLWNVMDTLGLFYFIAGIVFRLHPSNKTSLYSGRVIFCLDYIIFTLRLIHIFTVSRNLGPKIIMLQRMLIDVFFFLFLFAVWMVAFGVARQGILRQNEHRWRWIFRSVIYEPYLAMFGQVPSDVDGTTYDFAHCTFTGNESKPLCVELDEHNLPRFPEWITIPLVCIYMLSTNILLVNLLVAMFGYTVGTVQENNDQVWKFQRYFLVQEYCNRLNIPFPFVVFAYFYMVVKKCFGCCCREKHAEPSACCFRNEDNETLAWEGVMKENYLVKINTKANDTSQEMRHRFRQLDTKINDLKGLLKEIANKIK

| SMILES | inhibition at 0.2 µM (canine TRPM8) [%] | pIC50 (canine TRPM8) | % Inhibition of icilin-induced “wet-dog” shakes (Male Sprague Dawley rats; 30 mg/kg p.o.) [%] | % Inhibition of icilin-induced “wet-dog” shakes (Male Sprague Dawley rats; 10 mg/kg p.o.) [%] |
| --- | --- | --- | --- | --- |
| FC(F)(F)Oc1ccccc1-c1ccc2[nH]c(/C=C/C3CCCCC3)nc2c1 [Compound 1, 2-(2-Cyclohexyl-vinyl)-5-(2-trifluoromethoxy-phenyl)-1H-benzimidazole hydrochloride salt] | 93 | 7.85 | 48 | – |
| FC1=CCC(C=Cc2nc3cc(-c4ccccc4C(F)(F)F)cc(C(F)(F)F)c3[nH]2)CC1 (stereo not shown) [Compound 46, 2-[2-(4-Fluoro-cyclohex-3-enyl)-vinyl]-7-trifluoromethyl-5-(2-trifluoromethyl-phenyl)-1H-benzoimidazole hydrochloride salt] | 99 | 8.40 | – | – |
| FC1(F)CCC(/C=C/c2nc3cc(-c4ccccc4C(F)(F)F)cc(C(F)(F)F)c3[nH]2)CC1 [Compound 47, 2-[2-(4,4-Difluoro-cyclohexyl)-vinyl]-7-trifluoromethyl-5-(2-trifluoromethyl-phenyl)-1H-benzoimidazole hydrochloride salt] | 99 | 8.20 | – | – |
| Cc1cc(-c2ccccc2OC(F)(F)F)cc2nc(C=CC3CCCCC3)[nH]c12 [Compound 48, 2-(2-Cyclohexyl-vinyl)-7-methyl-5-(2-trifluoromethoxy-phenyl)-1H-benzoimidazole hydrochloride salt] | 99 | 8.22 | – | – |
| Cc1cc(-c2ccccc2C(F)(F)F)cc2nc(C=CC3CCCCC3)[nH]c12 [Compound 49, 2-(2-Cyclohexyl-vinyl)-7-methyl-5-(2-trifluoromethyl-phenyl)-1H-benzoimidazole hydrochloride salt] | 99 | 8.52 | – | – |
| FC(F)(F)c1ccccc1-c1ccc2[nH]c(/C=C/C3CCSCC3)nc2c1 [Compound 51, (E)-2-[2-(Tetrahydro-thiopyran-4-yl)-vinyl]-5-(2-trifluoromethyl-phenyl)-1H-benzimidazole] | 95 | 7.51 | – | – |
| Cc1cc(-c2ccccc2C(F)(F)F)cc2nc(/C=C/C3CCOCC3)[nH]c12 [Compound 53, (E)-7-Methyl-2-[2-(tetrahydro-pyran-4-yl)-vinyl]-5-(2-trifluoromethyl-phenyl)-1H-benzimidazole hydrochloride] | 102 | 8.10 | – | – |
| FC(F)(F)c1cc(-c2ccc3[nH]c(/C=C/C4CCOCC4)nc3c2)ccn1 [Compound 54, (E)-2-[2-(Tetrahydro-pyran-4-yl)-vinyl]-5-(2-trifluoromethyl-pyridin-4-yl)-1H-benzimidazole hydrochloride] | 1 | – | – | – |
| FC(F)(F)c1ncccc1-c1ccc2[nH]c(/C=C/C3CCCCC3)nc2c1 [Compound 56, (E)-2-(2-Cyclohexyl-vinyl)-5-(2-trifluoromethyl-pyridin-3-yl)-1H-benzimidazole hydrochloride] | 99 | 7.96 | – | – |
| FC(F)(F)c1cccnc1-c1ccc2[nH]c(/C=C/C3CCCCC3)nc2c1 [Compound 60, (E)-2-(2-Cyclohexyl-vinyl)-5-(3-trifluoromethyl-pyridin-2-yl)-1H-benzimidazole] | 92 | 7.35 | – | – |
| FC(F)(F)c1cccnc1-c1ccc2[nH]c(/C=C/C3CCOCC3)nc2c1 [Compound 62, (E)-2-[2-(Tetrahydro-pyran-4-yl)-vinyl]-5-(3-trifluoromethyl-pyridin-2-yl)-1H-benzoimidazole hydrochloride] | 92 | 7.68 | – | – |
| CC1(/C=C/c2nc3cc(-c4ccccc4C(F)(F)F)ccc3[nH]2)CCOCC1 [Compound 66, (E)-2-[2-(4-Methyl-tetrahydro-pyran-4-yl)-vinyl]-5-(2-trifluoromethyl-phenyl)-1H-benzimidazole] | 101 | 7.51 | – | – |
| CC1(/C=C/c2nc3cc(-c4c(C(F)(F)F)cccc4C(F)(F)F)ccc3[nH]2)CCOCC1 [Compound 67, (E)-5-(2,6-Bis-trifluoromethyl-phenyl)-2-[2-(4-methyl-tetrahydro-pyran-4-yl)-vinyl]-1H-benzimidazole] | 100 | 7.89 | – | – |
| C/C(=C\c1nc2cc(-c3ccccc3C(F)(F)F)ccc2[nH]1)C1CCCCC1 [Compound 69, (E)-2-(2-Cyclohexyl-propenyl)-5-(2-trifluoromethyl-phenyl)-1H-benzimidazole] | 102 | 7.96 | – | – |
| FC(F)(F)c1ccccc1-c1ccc2[nH]c(/C=C/C34CCC(Br)(CC3)CC4)nc2c1 [Compound 70, (E)-2-[2-(4-Bromo-bicyclo[2.2.2]oct-1-yl)-vinyl]-5-(2-trifluoromethyl-phenyl)-1H-benzoimidazole] | 97 | 7.96 | – | – |

Continued, in another order:

| inhibition at 0.2 µM (canine TRPM8) [%] | pIC50 (canine TRPM8) | SMILES | % Inhibition of icilin-induced “wet-dog” shakes (Male Sprague Dawley rats; 30 mg/kg p.o.) [%] | % Inhibition of icilin-induced “wet-dog” shakes (Male Sprague Dawley rats; 10 mg/kg p.o.) [%] |
| --- | --- | --- | --- | --- |
| 102 | 8.52 | FC1(F)CCC(/C=C/c2nc3cc(-c4ccccc4C(F)(F)F)ccc3[nH]2)CC1 [Compound 30, 2-[2-(4,4-Difluoro-cyclohexyl)-vinyl]-5-(2-trifluoromethyl-phenyl)-1H-benzimidazole hydrochloride salt] | – | 98 |
| 100 | 8.22 | COc1cccc(F)c1-c1ccc2[nH]c(C=CC3CC=C(F)CC3)nc2c1 (stereo not shown) [Compound 41, 2-[2-(4-Fluoro-cyclohex-3-enyl)-vinyl]-5-(2-fluoro-6-methoxy-phenyl)-1H-benzoimidazole hydrochloride salt] | – | – |
| 101 | 8.52 | Fc1cccc(C(F)(F)F)c1-c1ccc2[nH]c(C=CC3CCC(F)(F)CC3)nc2c1 [Compound 42, 2-[2-(4,4-Difluoro-cyclohexyl)-vinyl]-5-(2-fluoro-6-trifluoromethyl-phenyl)-1H-benzoimidazole hydrochloride salt] | – | – |
| 100 | 8.70 | COc1cccc(OC)c1-c1ccc2[nH]c(C=CC3CCC(F)(F)CC3)nc2c1 [Compound 43, 2-[2-(4,4-Difluoro-cyclohexyl)-vinyl]-5-(2,6-dimethoxy-phenyl)-1H-benzoimidazole hydrochloride salt] | – | – |
| 101 | 8.52 | COc1cccc(F)c1-c1ccc2[nH]c(C=CC3CCC(F)(F)CC3)nc2c1 [Compound 44, 2-[2-(4,4-Difluoro-cyclohexyl)-vinyl]-5-(2-fluoro-6-methoxy-phenyl)-1H-benzoimidazole hydrochloride salt] | – | – |
| 101 | 8.15 | COc1ccc(F)cc1-c1ccc2[nH]c(C=CC3CCC(F)(F)CC3)nc2c1 [Compound 45, 2-[2-(4,4-Difluoro-cyclohexyl)-vinyl]-5-(5-fluoro-2-methoxy-phenyl)-1H-benzoimidazole hydrochloride salt] | – | – |
| 91 | 7.15 | Fc1ccccc1-c1ccc2[nH]c(/C=C/C3CCOCC3)nc2c1 [Compound 52, (E)-5-(2-Fluoro-phenyl)-2-[2-(tetrahydro-pyran-4-yl)-vinyl]-1H-benzimidazole trifluoroacetic acid salt] | – | – |
| 101 | 8.10 | Fc1cccc(C(F)(F)F)c1-c1ccc2[nH]c(/C=C/C3CCCCC3)nc2c1 [Compound 57, (E)-2-(2-Cyclohexyl-vinyl)-5-(2-fluoro-6-trifluoromethyl-phenyl)-1H-benzimidazole] | – | – |
| 97 | 7.49 | Fc1cccc(F)c1-c1ccc2[nH]c(/C=C/C3CCOCC3)nc2c1 [Compound 61, (E)-5-(2,6-Difluoro-phenyl)-2[2-(tetrahydro-pyran-4-yl)-vinyl]-1H-benzoimidazole hydrochloride] | – | – |
| 97 | 7.92 | Cc1cc(-c2ccccc2C(F)(F)F)cc2nc(/C=C/C3CCC(C)(C)CC3)[nH]c12 [Compound 63, (E)-2-[2-(4,4-Dimethyl-cyclohexyl)-vinyl]-7-methyl-5-(2-trifluoromethyl-phenyl)-1H-benzoimidazole hydrochloride] | – | – |
| 98 | 7.64 | CC1(C)CCC(/C=C/c2nc3cc(-c4ccccc4C(F)(F)F)ccc3[nH]2)CC1 [Compound 64, (E)-2-[2-(4,4-Dimethyl-cyclohexyl)-vinyl]-5-(2-trifluoromethyl-phenyl)-1H-benzoimidazole hydrochloride] | – | – |
| 96 | 7.26 | CC1(C)CCC(/C=C/c2nc3cc(-c4c(F)cccc4F)ccc3[nH]2)CC1 [Compound 65, (E)-5-(2,6-Difluoro-phenyl)-2-[2-(4,4-dimethyl-cyclohexyl)-vinyl]-1H-benzoimidazole trifluoroacetic acid salt] | – | – |
